Assay results as given in US4268630A, “Microbiological production of ketones from C3 -C6 alkanes” (priority 1979, dated 1981).
Read-outs that look alike come from different tables or passages of the source.

Legend:
[1] = tested on: cell-free secondary alcohol dehydrogenase (SADH) system; assay: Cofactor requirement of cell-free soluble extracts oxidizing 2-butanol; assay type: biochemical
Description: To prepare the cell-free secondary alcohol dehydrogenase (SADH) system, the washed cells were disrupted with a Wave Energy Ultrasonic Oscillator, Model W201 (Wave Energy System, Inc., Newtown, Pa.) and centrifuged at 20,000× g. for 30 minutes. […] The enzyme activity was measured with a fluorescence spectrophotometer (Perkin Elmer, Model MPF 44A) by following the formation of reduced NAD (EX 340 nm, Em 460 nm). The formation of reduced NAD was also followed with an absorption spectrophotometer at 340 nm. The assay system (3 ml.) contained: potassium phosphate buffer pH 7.0; 150 μmol.; NAD 1 μmol.; a given amount of enzyme preparation; and secondary alcohol 10 μmol. The reaction was started by the addition of substrate. One unit of enzyme activity represents the reduction of one μmole NAD per minute. Protein concentrations were determined by the Lowry method (J. Biol. Chem., 193: 255-275 (1951)).

[2] = tested on: secondary alcohol dehydrogenase; assay: Activity of purified yeast-derived secondary alcohol dehydrogenase; assay type: biochemical, Pichia sp. NRRL Y-11,328; settings: purified enzyme
[3] = tested on: cell-free extracts of strain ATCC 21439; settings: fluorescence spectrophotometry
Description: The reaction mixtures 3 ml (1.0 mg protein) were incubated at 30°
C. for 10 min. (exp. 1) and for 20 min. (exp. 2) in the presence of 1.0
^(a) Determined gas chromatographically.
^(b) Determined fluorescence spectrophotometrically. Endogenous
consumption of NAD was corrected.

## NC(=O)c1ccc[n+]([C@@H]2O[C@H](COP(=O)([O-])OP(=O)(O)OC[C@H]3O[C@@H](n4cnc5c(N)ncnc54)[C@H](O)[C@@H]3O)[C@@H](O)[C@H]2O)c1 [NAD, Nicotinamide adenine dinucleotide]
[1]
  effectiveness as cofactor for oxidation of 2-butanol: required
[2]
  ability to act as electron acceptor/carrier: required
[3]; Experiment 1: 10 min
  NAD Consumed: 270 nmol
[3]; Experiment 2: 20 min
  NAD Consumed: 540 nmol
